Reference: PubChem BioAssay AID977605 (Broad Institute, 2014)
The source made the active and inactive calls.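 The calls were made as follows: active = fitted curve reaches 40% activation below the top valid tested dose, in every test run; inconclusive = test runs disagree on the call; inactive = the rest, including effects opposite to the expected direction.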

Test: E-selectin inducers in HUVECs, dose response, imaging, HUVEC, cherry-picked samples (AID 977605);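 also: signal is the share of imaged cells scored positive for E-selectin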
Conditions: HUVEC E-selectin immunostaining, percent of TNF-alpha response over vehicle

Row | SMILES | activation (at 19.5 µM (top of the series)) | further results
1 | C[C@@H]1CN([C@H](C)CO)C(=O)c2cc(NS(=O)(=O)c3cccs3)ccc2O[C@H]1CN(C)S(C)(=O)=O | -0.143% (inactive) | –
2 | COc1ccccc1-c1nnc(NC(=O)CSc2nncn2C)s1 | -0.056% (inactive) | –
3 | C[C@@H]1CN([C@@H](C)CO)C(=O)Cc2cc(NC(=O)c3ccncc3)ccc2O[C@@H]1CN(C)S(=O)(=O)c1cn(C)cn1 | -0.153% (inactive) | –
4 | C[C@H]1CN([C@@H](C)CO)C(=O)c2cc(N(C)C)ccc2O[C@H]1CN(C)Cc1ccc(C(=O)O)cc1 | 0.082% (inactive) | –
5 | O=C(NC1CCCC1)C(c1ccc(F)cc1)N(C(=O)c1csnn1)c1ccccc1 (stereo not given) | 0.654% (inactive) | –
6 | CC(Sc1ncnc2sc(-c3ccccc3)cc12)C(=O)N1CCNC1=O (stereo not given) | 0.007% (inactive) | –
7 | C[C@@H]1CN([C@H](C)CO)C(=O)Cc2cc(NC(=O)Nc3ccc(F)cc3)ccc2O[C@H]1CN(C)S(=O)(=O)c1ccc(Cl)cc1 | 0.054% (inactive) | –
8 | C[C@H](CO)N1C[C@H](C)[C@H](CN(C)Cc2ccc(Cl)c(Cl)c2)Oc2ccc(NC(=O)Nc3ccc4c(c3)OCO4)cc2CC1=O | -0.197% (inactive) | –
9 | Cc1cccc(CC(=O)c2c[nH]c3ccccc23)c1 | -0.07% (inactive) | –
10 | COc1ccc(S(=O)(=O)Nc2cccc3c2O[C@H](CN(C)C(=O)Nc2c(C)noc2C)[C@H](C)CN([C@H](C)CO)C3=O)cc1 | -0.109% (inactive) | –
11 | CC(C)OC(=O)c1cccnc1N1CCN(c2cccc(Cl)c2)CC1 | 0.039% (inactive) | –
12 | COc1ccc(CN(C)C[C@H]2Oc3ccc(NC(=O)c4ccncc4)cc3C(=O)N([C@H](C)CO)C[C@@H]2C)cc1 | 0.118% (inactive) | –
13 | CC1CCC(NC(=O)CCN2C(=O)C3C4C=CC(C4)C3C2=O)CC1 (stereo not given) | 0.46% (inactive) | –
14 | Cc1noc(C)c1S(=O)(=O)Nc1ccc2c(c1)CC(=O)N([C@H](C)CO)C[C@H](C)[C@@H](CN(C)Cc1ccc(-c3ccccc3)cc1)O2 | – | activation (at 21 µM (top of the series)): -0.276% (inactive)
15 | CC(C)(C)CC(=O)Nc1ccc(-c2cn3cccnc3n2)cc1 | 0.057% (inactive) | –
16 | Cc1noc(C)c1COc1ccccc1C(=O)N1CCN(S(=O)(=O)c2ccc(F)c(F)c2)CC1 | 0.069% (inactive) | –
17 | C[C@@H]1CN([C@H](C)CO)C(=O)c2cccc(NC(=O)Nc3ccc(F)cc3)c2O[C@H]1CN(C)C(=O)NC1CCCCC1 | 0.496% (inactive) | –
18 | COc1ccc(S(=O)(=O)Nc2ccc3c(c2)C(=O)N([C@@H](C)CO)C[C@@H](C)[C@@H](CN(C)Cc2ccc(C(=O)Nc4ccccc4N)cc2)O3)cc1 | 1.66% (inactive) | –

Row | SMILES | activation (at 19.5 µM (top of the series)) | further results
19 | C[C@@H]1CN([C@@H](C)CO)C(=O)Cc2cc(NC(=O)Nc3ccc4c(c3)OCO4)ccc2O[C@H]1CN(C)C | -0.168% (inactive) | –
20 | COc1ccccc1CN1CC(C(=O)N(C)Cc2[nH]c3ccccc3c2C)CCC1=O (stereo not given) | 0.071% (inactive) | –
21 | C[C@@H]1CN([C@H](C)CO)C(=O)c2cc(NC(=O)c3ccncc3)ccc2O[C@@H]1CN(C)C(=O)Nc1ccc2c(c1)OCO2 | – | activation (at 21 µM (top of the series)): 0.64% (inactive)
22 | C[C@H]1CN([C@@H](C)CO)C(=O)c2cc(NC(=O)CCCN(C)C)ccc2O[C@H]1CN(C)Cc1ccc(C(F)(F)F)cc1 | -0.127% (inactive) | –
23 | C[C@@H]1CN([C@@H](C)CO)C(=O)c2cccc(NS(=O)(=O)c3ccc(F)cc3)c2O[C@H]1CN(C)Cc1ccc(C(=O)O)cc1 | -0.15% (inactive) | –
24 | C[C@H](CO)N1C[C@H](C)[C@@H](CN(C)S(=O)(=O)c2cn(C)cn2)Oc2ccc(NC(=O)CCCCCC(=O)Nc3ccccc3N)cc2C1=O | – | activation (at 16 µM (top of the series)): -0.01% (inactive)
25 | CCCC#Cc1ccc2c(c1)O[C@@H](CN(C)C(=O)c1ccccc1)[C@@H](C)CN([C@H](C)CO)S2(=O)=O | -0.25% (inactive) | –
26 | C[C@@H]1CN([C@@H](C)CO)C(=O)c2cccc(NS(=O)(=O)c3ccc(Cl)cc3)c2O[C@H]1CN(C)C(=O)Nc1ccc2c(c1)OCO2 | -0.05% (inactive) | –
27 | C[C@H]1CN([C@@H](C)CO)C(=O)c2cc(Br)cnc2O[C@H]1CN(C)Cc1cccc(F)c1 | -0.038% (inactive) | –
28 | CC(C)NC(=O)N(C)C[C@H]1Oc2ccc(NC(=O)CCC(F)(F)F)cc2CC(=O)N([C@H](C)CO)C[C@@H]1C | -0.115% (inactive) | –
29 | COc1ccc(NC(=O)CCCn2c(=S)[nH]c3ccccc3c2=O)cc1 | 1.61% (inactive) | –
30 | NS(=O)(=O)c1ccc(NC(=O)CCC(=O)N2CCOCC2)cc1 | 0.021% (inactive) | –
31 | CCCNC(=O)N(C)C[C@H]1Oc2ncc(C3=CCCC3)cc2C(=O)N([C@H](C)CO)C[C@@H]1C | -0.163% (inactive) | –
32 | C[C@H](CO)N1C[C@H](C)[C@@H](CN(C)S(=O)(=O)c2cccs2)Oc2ccc(NS(=O)(=O)c3ccc(Cl)cc3)cc2CC1=O | 0.125% (inactive) | –
33 | C[C@@H]1CN([C@@H](C)CO)C(=O)Cc2cc(NC(=O)Cc3ccccc3)ccc2O[C@H]1CN(C)C(=O)Nc1cccc2ccccc12 | -0.158% (inactive) | –
34 | C[C@H]1CN([C@@H](C)CO)C(=O)Cc2cc(NS(C)(=O)=O)ccc2O[C@@H]1CN(C)Cc1ccc(Oc2ccccc2)cc1 | – | activation (at 21 µM (top of the series)): 4.65% (inactive)
35 | C[C@@H]1CN([C@H](C)CO)C(=O)Cc2cc(NS(C)(=O)=O)ccc2O[C@@H]1CN(C)S(=O)(=O)c1cn(C)cn1 | 13.4% (inactive) | –
